{"source": "patent US8716237B2", "about": "“Methods for the treatment or prevention of hemorrhagic conditions” (University of Rochester, priority 2007, dated 2014)", "key": {"[1]": {"system": "Cyld−/− mice", "assay": "Survival of Cyld−/− mice inoculated with S. pneumoniae after pretreatment", "format": "in vivo, mouse", "details": "SB203580 10 mg/kg intraperitoneally 2 hours before S. pneumoniae inoculation", "procedure": "For S. pneumoniae-induced lethal infections in wild type, Cyld^−/−, Mkk3^−/−, and PAI-1^−/− mice, anaesthetized mice were intratracheally inoculated with live S. pneumoniae, S. pneumoniae wild type or pneumolysin mutant lysate, or pneumolysin (“PLY”), at a concentration of 5×10^7CFU per mouse for live bacteria and bacterial lysate and 200 ng/mouse for PLY in all experiments unless otherwise indicated, and saline was inoculated as control. The mice were monitored for lethality every 2 hours for the first 12 hours and every 12 hours for 5 days thereafter. To assess the effect of perturbing p38 MAPK signaling on S. pneumoniae-induced lethality in Cyld^−/− mice, Cyld^−/− mice were pretreated with the p38 inhibitor SB203580 (10 mg/kg, intraperitoneally in Cyld^−/− mice) 2 hours before S. pneumoniae inoculation, and mice were then intratracheally inoculated with S. pneumoniae. To determine the effect of administration of exogenous PAI-1 on S. pneumoniae-induced lethality, mice were intratracheally administered with mouse rPAI-1 (12.5 μg/mouse) or saline as control, followed by S. pneumoniae and PLY inoculation 1 day after PAI-1 administration. For PAI-1 neutralization in Cyld^−/− mice, Cyld^−/− mice were intraperitoneally injected with α-PAI-1 mAb (25 μg/mouse for histological analysis and 50 μg/mouse for lethality) 2 hours before S. pneumoniae inoculation. Mouse IgG was used as control. […] Lung tissues were then subjected to histological analysis and total mRNA and protein extraction. In all Examples, saline was used as a control unless otherwise specified.\nTo assess the effect of perturbing NF-κB signaling on S.p.-induced lethality in Cyld^−/− mice, Cyld^−/− mice were pretreated with the IKK inhibitor Wedelolactone (10 mg/kg, intraperitoneally) 2 hours before S.p. inoculation, and mice were then intratracheally inoculated with S.p.\nDifferences in survival between wild-type, Cyld-deficient (“Cyld^−/−”), Mkk3-deficient (“Mkk3^−/−”), and PAI/−/−deficient (“PAI-1^−/−”) mice after saline, S. pneumoniae, S. pneumoniae lysate, and/or pneumolysin inoculation with or without SB203580, rPAI-1, or α-PAI-1 mAb were determined by Kaplan-Meier analysis. All tests were performed using SPSS14.0 software (SPSS Inc.). All in vivo survival rate data were evaluated by Log Lank test. All other in vivo and in vitro data were evaluated by Student t-test. Statistical significance was accepted at a value of p<0.05."}, "[2]": {"system": "PAI-1", "assay": "PAI-1 mRNA expression in mouse embryonic fibroblasts (Q-PCR)", "format": "cell-based", "details": "Cyld−/− MEF cells; pretreatment with SB203580", "procedure": "Cells were cultured on 12-well plates and transfected with various expression plasmids, as described in Examples 1-15 and the Brief Description of the Drawings. All transient transfections were carried out in triplicate using TransIT-LT1 reagent (Minis) following the manufacturer's instructions. […] Transfected cells were pretreated with or without chemical inhibitors including SB203580 (1 μM) for 2 hours. S.p. or pneumolysin was then added to the transfected cells 42 hours after transfection. After 5 hours, the cells were harvested for either RNA extraction and real-time quantitative PCR analysis as described in the Examples or luciferase assay. Luciferase activity was normalized with respect to β-galactosidase activity using the Galacton-Plus substrate system (Tropix) following manufacturer's instruction. In all co-transfections with expression plasmids of signaling molecules, an empty vector was used as a control. […]\nTotal RNA was isolated with TRIzol reagent (Invitrogen) by following the manufacturer's instructions. Real-Time Quantitative RT-PCR analysis of PAI-1 and CYLD were performed as described in Jono et al., “NF-κB Is Essential for Induction of CYLD, the Negative Regulator of NF-κB: Evidence for a Novel Inducible Autoregulatory Feedback Pathway,” J. Biol. Chem. 279:36171-4 (2004), which is hereby incorporated by reference in its entirety. […]"}}}
{"smiles": "C[S+]([O-])c1ccc(-c2nc(-c3ccncc3)c(-c3ccc(F)cc3)[nH]2)cc1", "note": "(centres unmarked) [SB203580]", "values": [{"measurement": "inoculated mice died within 48 hours", "setting": "[1]", "result": "approximately 80%"}, {"measurement": "survival", "setting": "[1]", "result": 20, "unit": "%"}, {"measurement": "time after inoculation at which mice started to die", "setting": "[1]", "result": 12, "unit": "h"}, {"measurement": "PAI-1 expression in cells treated with PLY", "setting": "[2]", "result": "reduced PAI-1 expression"}, {"measurement": "PAI-1 expression in cells treated with S. pneumoniae", "setting": "[2]", "result": "reduced PAI-1 expression"}]}
